Measured values from ChEMBL document CHEMBL4354805, “Discovery of MK-8719, a Potent O-GlcNAcase Inhibitor as a Potential Treatment for Tauopathies” (J Med Chem, 2019).

Key:
[1] = Half life in Wistar Han rat at 1 mg/kg, iv; type: ADME, organism-based; conditions: in vivo
[2] = biological target: T1, Beta-hexosaminidase subunit beta (Homo sapiens, UniProt P07686); assay: Inhibition of human beta hexosaminidase assessed as inhibitory constant using 4-methylumbelliferyl N-acetyl-beta-D-glucosaminide dihydrate as substrate measured every 60 sec for 45 mins by fluorescence spectrophotometry
T1 sequence (P07686 whole entry): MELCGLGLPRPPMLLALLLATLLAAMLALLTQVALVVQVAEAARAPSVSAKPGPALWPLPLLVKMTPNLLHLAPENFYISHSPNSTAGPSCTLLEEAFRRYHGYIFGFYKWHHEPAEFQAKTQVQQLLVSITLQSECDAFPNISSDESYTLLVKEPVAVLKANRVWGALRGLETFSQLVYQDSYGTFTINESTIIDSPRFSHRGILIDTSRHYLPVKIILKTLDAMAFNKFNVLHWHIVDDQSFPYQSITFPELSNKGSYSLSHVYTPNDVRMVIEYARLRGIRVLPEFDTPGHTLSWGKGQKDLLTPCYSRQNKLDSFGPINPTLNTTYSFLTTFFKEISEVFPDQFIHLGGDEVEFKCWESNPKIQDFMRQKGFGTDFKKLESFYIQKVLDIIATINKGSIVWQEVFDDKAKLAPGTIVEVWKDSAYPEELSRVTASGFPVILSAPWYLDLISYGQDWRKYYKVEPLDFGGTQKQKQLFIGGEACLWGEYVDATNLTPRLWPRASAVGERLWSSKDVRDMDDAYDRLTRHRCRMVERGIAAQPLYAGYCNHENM

MDR1 = assay: Apparent permeability in pig LLC-PK1 cells transfected with MDR1; type: ADME, cell-based, Sus scrofa
Protein O-GlcNAcase [3] = biological target: T2, Protein O-GlcNAcase (Rattus norvegicus, UniProt Q8VIJ5); assay: Inhibition of OGA in rat PC12 cells assessed as OGlcNAcylated protein level incubated for 24 hrs by ELISA; type: cell-based
T2 sequence (Q8VIJ5 whole entry): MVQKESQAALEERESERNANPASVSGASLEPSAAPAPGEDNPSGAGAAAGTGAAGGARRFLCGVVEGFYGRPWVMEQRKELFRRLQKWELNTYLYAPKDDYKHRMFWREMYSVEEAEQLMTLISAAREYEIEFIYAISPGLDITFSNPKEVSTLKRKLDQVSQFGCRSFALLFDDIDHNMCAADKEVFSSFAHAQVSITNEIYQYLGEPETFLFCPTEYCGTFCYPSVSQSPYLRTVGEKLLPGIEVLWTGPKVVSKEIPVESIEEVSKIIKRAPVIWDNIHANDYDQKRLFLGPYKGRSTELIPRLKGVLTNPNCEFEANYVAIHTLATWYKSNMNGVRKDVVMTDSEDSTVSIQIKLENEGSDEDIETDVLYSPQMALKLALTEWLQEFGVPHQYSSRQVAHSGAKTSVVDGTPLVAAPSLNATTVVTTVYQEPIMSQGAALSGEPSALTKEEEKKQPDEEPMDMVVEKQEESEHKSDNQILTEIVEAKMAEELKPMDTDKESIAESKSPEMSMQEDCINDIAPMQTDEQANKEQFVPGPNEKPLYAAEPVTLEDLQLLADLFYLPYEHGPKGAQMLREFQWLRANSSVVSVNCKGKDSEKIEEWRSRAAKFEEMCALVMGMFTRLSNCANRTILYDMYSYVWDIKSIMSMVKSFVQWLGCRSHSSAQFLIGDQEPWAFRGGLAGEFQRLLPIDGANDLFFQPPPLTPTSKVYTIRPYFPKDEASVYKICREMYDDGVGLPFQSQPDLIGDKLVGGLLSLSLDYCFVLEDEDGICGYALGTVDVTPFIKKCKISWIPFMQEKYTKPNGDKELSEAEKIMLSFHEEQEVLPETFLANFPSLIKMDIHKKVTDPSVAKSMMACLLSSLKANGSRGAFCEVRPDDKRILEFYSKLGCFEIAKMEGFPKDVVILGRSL

[4] = Volume of distribution at steady state in Wistar Han rat at 1 mg/kg, iv or 3 mg/kg, po; type: ADME, organism-based; conditions: in vivo, read-out: Vdss
[5] = Fraction unbound in human plasma at 2.5 uM by equilibrium dialysis; type: ADME, cell-free
[6] = Fraction unbound in Wistar Han rat plasma at 2.5 uM by equilibrium dialysis; type: ADME, cell-free
[7] = AUCN in Wistar Han rat at 3 mg/kg, po; type: ADME, organism-based; conditions: in vivo
[8] = Clearance in Wistar Han rat at 1 mg/kg, iv; type: ADME, organism-based; conditions: in vivo
Protein O-GlcNAcase [9] = biological target: T3, Protein O-GlcNAcase (Homo sapiens, UniProt O60502); assay: Inhibition of recombinant human OGA
T3 sequence (O60502 whole entry): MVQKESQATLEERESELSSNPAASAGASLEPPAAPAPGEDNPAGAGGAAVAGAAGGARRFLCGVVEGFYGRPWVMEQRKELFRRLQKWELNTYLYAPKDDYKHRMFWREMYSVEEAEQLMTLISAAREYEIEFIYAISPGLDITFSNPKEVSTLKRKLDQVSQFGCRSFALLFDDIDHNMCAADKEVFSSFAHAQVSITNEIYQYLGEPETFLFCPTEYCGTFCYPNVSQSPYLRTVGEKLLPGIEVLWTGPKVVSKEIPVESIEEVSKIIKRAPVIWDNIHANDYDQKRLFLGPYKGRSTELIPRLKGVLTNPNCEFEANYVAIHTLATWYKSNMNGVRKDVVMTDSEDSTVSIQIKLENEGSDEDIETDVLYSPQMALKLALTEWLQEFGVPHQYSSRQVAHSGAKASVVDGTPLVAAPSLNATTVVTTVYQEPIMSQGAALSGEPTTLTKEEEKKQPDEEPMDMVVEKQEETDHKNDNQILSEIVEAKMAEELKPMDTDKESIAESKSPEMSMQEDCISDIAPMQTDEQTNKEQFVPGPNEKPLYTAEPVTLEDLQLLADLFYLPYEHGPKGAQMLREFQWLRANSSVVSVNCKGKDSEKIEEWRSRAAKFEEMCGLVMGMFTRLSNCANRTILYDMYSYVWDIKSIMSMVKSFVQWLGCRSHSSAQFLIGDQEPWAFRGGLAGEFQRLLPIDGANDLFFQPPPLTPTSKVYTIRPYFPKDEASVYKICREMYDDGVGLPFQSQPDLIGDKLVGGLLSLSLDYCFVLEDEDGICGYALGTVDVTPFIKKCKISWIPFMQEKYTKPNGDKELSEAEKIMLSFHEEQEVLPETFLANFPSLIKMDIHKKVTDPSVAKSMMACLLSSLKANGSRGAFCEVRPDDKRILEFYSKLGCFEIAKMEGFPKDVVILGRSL

[10] = Oral bioavailability in Wistar Han rat at 3 mg/kg; type: ADME, organism-based; conditions: in vivo
Cytochrome P450 2D6 = Cytochrome P450 2D6 (Homo sapiens, UniProt P10635); assay: Inhibition of CYP2D6 (unknown origin); type: ADME
[11] = Ratio of drug uptake in rat brain to plasma at 3 mg/kg, po measured after 24 hrs; type: ADME, organism-based; conditions: read-out: BPR
[12] = biological target: Voltage-dependent L-type calcium channel subunit alpha-1C (Homo sapiens, UniProt Q13936); assay: Inhibition of Cav1.2 (unknown origin)
Cytochrome P450 3A4 = Cytochrome P450 3A4 (Homo sapiens, UniProt P08684); assay: Inhibition of CYP3A4 (unknown origin); type: ADME
[13] = biological target: Voltage-gated inwardly rectifying potassium channel KCNH2 (Homo sapiens, UniProt Q12809); assay: Displacement of MK-0499 from human ERG
[14] = biological target: Sodium channel protein type 5 subunit alpha (Homo sapiens, UniProt Q14524); assay: Inhibition of Nav1.5 (unknown origin)
[15] = Drug uptake in rat brain at 3 mg/kg, po measured after 24 hrs; type: ADME, organism-based; conditions: in vivo
Rattus norvegicus [16] = assay: Elevation of O-protein in rat brain at 3 mg/kg, po measured after 24 hrs relative to control; type: functional
[17] = Clearance in Wistar Han rat at 2 mg/kg, iv; type: ADME, organism-based; conditions: in vivo
[18] = Drug uptake in rat brain at 3 mg/kg, po measured after 8 hrs; type: ADME, organism-based; conditions: in vivo
[19] = biological target: T4, Nuclear receptor subfamily 1 group I member 2 (Homo sapiens, UniProt O75469); assay: Activation of PXR (unknown origin) assessed as CYP3A4 induction
T4 sequence (O75469 whole entry): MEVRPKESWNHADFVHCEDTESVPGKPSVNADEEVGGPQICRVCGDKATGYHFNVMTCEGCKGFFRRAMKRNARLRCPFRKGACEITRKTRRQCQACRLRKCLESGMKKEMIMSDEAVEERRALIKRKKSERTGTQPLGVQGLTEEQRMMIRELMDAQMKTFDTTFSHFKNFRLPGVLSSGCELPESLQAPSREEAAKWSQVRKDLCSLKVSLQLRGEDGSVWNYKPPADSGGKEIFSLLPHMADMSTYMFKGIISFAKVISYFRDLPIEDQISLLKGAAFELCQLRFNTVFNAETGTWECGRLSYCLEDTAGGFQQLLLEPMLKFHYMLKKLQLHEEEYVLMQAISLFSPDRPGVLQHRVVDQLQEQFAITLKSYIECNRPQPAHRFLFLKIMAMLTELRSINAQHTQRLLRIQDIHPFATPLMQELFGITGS

Cytochrome P450 2C9 = Cytochrome P450 2C9 (Homo sapiens, UniProt P11712); assay: Inhibition of CYP2C9 (unknown origin); type: ADME
[20] = Ratio of drug uptake in rat brain to plasma at 3 mg/kg, po measured after 8 hrs; type: ADME, organism-based; conditions: read-out: BPR
[21] = Half life in Wistar Han rat at 2 mg/kg, iv; type: ADME, organism-based; conditions: in vivo
Rattus norvegicus [22] = assay: Elevation of O-protein in rat brain at 3 mg/kg, po measured after 8 hrs relative to control; type: functional
[23] = Volume of distribution at steady state in Wistar Han rat at 2 mg/kg, iv or 3 mg/kg, po; type: ADME, organism-based; conditions: in vivo, read-out: Vdss
Rattus norvegicus [24] = assay: Increase in O-protein AUC in rat brain at 10 mg/kg, po measured upto 24 hrs; type: ADME, organism-based; conditions: in vivo
[25] = AUC (0 to 24 hrs) in rat brain at 10 mg/kg, po measured upto 24 hrs; type: ADME, organism-based; set-up: dose 10 mg/kg, time < 24 hr, route oral; conditions: in vivo
Rattus norvegicus [26] = assay: Elevation of O-protein in rat brain at 10 mg/kg, po measured after 24 hrs; type: functional
[27] = Tmax in rat brain at 10 mg/kg, po measured upto 24 hrs; type: ADME, organism-based

Chain of Cytochrome P450 2D6 (P10635 whole entry): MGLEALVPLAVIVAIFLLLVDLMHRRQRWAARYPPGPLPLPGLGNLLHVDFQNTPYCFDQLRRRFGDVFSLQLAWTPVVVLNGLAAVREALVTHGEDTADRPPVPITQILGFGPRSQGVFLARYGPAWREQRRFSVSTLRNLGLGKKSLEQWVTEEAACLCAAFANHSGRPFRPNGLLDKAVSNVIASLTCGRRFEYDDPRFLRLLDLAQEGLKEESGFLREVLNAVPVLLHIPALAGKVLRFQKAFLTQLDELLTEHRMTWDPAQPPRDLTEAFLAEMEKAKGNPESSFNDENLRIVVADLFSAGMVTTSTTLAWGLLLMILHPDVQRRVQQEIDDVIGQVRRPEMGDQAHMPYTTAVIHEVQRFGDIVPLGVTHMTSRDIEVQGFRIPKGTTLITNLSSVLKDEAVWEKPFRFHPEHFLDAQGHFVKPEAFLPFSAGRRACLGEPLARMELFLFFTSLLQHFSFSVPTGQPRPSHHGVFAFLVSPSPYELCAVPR
Chain of Voltage-gated inwardly rectifying potassium channel KCNH2 (Q12809 whole entry): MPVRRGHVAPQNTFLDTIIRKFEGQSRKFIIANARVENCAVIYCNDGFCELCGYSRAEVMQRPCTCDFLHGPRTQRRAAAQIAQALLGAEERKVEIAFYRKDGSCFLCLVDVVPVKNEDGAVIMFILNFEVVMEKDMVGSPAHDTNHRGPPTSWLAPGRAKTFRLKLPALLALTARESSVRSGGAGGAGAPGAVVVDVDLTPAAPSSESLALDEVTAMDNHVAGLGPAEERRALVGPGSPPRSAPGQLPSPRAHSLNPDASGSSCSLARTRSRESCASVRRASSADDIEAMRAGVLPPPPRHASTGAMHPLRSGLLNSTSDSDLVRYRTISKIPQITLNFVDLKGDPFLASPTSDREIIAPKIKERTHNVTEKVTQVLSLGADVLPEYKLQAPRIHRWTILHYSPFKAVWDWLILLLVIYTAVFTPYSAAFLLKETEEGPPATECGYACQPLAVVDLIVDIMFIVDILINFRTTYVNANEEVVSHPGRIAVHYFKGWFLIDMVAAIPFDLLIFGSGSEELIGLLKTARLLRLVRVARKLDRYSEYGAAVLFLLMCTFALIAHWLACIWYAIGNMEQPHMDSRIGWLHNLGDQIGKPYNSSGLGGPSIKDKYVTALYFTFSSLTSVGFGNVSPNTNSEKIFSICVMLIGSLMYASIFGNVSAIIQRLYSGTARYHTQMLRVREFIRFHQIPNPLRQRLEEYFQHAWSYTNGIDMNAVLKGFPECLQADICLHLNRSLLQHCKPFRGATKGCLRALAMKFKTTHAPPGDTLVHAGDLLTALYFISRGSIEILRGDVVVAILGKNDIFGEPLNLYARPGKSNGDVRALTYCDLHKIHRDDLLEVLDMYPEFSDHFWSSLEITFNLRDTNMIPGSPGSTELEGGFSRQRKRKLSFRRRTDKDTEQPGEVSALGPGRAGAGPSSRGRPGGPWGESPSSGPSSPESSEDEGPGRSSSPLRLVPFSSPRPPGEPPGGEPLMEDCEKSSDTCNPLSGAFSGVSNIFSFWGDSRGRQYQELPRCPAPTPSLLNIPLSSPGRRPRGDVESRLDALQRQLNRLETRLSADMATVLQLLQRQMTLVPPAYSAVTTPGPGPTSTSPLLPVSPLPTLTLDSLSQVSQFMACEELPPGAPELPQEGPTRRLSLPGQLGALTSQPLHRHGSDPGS
Chain of Voltage-dependent L-type calcium channel subunit alpha-1C (Q13936 whole entry): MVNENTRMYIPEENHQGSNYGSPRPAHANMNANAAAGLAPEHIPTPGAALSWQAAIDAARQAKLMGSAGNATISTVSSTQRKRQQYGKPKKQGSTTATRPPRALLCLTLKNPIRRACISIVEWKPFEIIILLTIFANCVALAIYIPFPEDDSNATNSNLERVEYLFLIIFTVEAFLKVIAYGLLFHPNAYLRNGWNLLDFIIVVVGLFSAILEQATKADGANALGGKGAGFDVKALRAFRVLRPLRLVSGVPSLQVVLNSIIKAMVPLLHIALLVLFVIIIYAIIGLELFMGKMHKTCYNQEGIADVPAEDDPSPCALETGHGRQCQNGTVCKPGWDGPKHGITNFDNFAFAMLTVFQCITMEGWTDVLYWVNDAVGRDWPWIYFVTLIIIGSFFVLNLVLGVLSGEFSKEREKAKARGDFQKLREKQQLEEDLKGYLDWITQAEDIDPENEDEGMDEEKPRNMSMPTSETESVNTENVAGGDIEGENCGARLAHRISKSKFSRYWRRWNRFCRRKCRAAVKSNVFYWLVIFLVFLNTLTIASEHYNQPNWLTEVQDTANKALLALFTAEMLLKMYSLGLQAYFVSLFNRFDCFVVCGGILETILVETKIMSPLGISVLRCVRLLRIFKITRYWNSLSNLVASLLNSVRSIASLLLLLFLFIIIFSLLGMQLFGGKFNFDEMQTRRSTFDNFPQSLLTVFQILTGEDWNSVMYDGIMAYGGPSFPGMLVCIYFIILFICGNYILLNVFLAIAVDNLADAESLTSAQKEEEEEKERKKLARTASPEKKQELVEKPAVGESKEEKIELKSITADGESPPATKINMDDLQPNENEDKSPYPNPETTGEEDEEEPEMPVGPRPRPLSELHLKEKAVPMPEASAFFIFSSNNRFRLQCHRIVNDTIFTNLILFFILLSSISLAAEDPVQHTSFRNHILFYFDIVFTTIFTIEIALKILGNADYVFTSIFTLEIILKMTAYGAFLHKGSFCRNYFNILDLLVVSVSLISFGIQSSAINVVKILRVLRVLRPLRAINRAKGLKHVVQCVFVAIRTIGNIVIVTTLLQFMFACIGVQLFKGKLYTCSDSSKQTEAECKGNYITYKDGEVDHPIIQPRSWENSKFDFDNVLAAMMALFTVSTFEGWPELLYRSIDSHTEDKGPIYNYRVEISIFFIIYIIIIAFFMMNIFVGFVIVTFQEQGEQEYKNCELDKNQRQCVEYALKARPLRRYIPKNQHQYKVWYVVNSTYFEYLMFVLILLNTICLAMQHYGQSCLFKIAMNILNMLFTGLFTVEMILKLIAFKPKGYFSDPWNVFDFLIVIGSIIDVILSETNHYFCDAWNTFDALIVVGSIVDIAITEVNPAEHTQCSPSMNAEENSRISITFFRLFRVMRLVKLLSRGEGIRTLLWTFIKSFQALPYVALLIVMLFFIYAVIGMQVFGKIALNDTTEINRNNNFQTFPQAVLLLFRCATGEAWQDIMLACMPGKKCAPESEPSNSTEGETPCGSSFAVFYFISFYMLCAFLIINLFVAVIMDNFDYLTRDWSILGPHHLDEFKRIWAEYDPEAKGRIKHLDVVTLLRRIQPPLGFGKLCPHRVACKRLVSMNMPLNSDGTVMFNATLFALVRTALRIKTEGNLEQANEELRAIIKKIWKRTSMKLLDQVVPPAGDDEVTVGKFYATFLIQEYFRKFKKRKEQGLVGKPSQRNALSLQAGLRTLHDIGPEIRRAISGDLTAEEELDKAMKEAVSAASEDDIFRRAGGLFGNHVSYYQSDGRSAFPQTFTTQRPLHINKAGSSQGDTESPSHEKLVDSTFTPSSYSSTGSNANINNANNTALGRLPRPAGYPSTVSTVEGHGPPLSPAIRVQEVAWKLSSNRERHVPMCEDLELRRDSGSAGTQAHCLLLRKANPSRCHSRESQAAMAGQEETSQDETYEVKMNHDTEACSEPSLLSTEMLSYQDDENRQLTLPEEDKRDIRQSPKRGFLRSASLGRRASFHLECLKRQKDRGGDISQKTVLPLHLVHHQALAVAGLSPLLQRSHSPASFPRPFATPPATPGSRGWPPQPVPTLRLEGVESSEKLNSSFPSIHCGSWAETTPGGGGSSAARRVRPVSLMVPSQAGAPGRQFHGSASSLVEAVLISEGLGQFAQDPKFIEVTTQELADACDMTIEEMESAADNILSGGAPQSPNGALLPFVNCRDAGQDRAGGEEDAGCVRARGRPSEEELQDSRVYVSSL
Chain of Cytochrome P450 2C9 (P11712 whole entry): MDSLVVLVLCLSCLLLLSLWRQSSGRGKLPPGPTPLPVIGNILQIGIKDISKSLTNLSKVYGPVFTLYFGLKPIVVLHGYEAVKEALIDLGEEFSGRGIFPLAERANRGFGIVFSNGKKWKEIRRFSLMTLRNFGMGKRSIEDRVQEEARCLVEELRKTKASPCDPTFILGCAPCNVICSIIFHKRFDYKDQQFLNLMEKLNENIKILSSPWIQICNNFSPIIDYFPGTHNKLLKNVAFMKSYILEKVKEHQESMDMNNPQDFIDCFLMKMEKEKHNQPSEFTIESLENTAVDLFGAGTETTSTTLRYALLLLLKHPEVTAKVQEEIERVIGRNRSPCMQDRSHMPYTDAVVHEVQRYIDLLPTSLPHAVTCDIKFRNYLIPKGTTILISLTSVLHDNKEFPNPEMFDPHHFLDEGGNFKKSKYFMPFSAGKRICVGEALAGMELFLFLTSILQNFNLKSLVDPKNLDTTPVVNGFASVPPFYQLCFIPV
Chain of Cytochrome P450 3A4 (P08684 whole entry): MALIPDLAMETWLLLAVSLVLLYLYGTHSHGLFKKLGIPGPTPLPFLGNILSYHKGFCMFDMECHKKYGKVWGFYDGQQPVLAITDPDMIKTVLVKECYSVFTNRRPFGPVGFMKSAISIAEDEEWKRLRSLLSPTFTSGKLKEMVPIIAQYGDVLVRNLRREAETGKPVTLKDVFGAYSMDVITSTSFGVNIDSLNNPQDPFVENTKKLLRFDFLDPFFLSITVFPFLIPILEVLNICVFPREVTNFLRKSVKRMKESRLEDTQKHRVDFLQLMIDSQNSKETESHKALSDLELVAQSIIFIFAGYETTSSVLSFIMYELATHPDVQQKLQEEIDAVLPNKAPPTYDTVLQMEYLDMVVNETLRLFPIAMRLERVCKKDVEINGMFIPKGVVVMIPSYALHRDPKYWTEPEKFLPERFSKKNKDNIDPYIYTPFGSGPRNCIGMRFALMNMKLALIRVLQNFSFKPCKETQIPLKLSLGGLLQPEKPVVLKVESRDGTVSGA

| Ki [2] [nM] | Papp (MDR1) [×10⁻⁶ cm/s] | EC50 (Protein O-GlcNAcase [3]) [nM] | fraction unbound at 2.5 µM [5] | fraction unbound at 2.5 µM [6] | AUC/dose [7] [µM·kg·h/mg] | Ki (Protein O-GlcNAcase [9]) [nM] | bioavailability [10] [%] | Kp at 24 h [11] | Drug uptake [15] [nmol/g] | clearance [17] [mL/min/kg] | Drug uptake [18] [nmol/g] | Kp at 8 h [20] | half-life [21] [h] | Vd [23] [L/kg] | fold change (FC) (Rattus norvegicus [24]) | AUC [25] [nM·h/g] | Structure (SMILES) | fold change (FC) (Rattus norvegicus [16]) | fold change (FC) (Rattus norvegicus [22]) | fold change (FC) (Rattus norvegicus [26]) | other results |
| --- | --- | --- | --- | --- | --- | --- | --- | --- | --- | --- | --- | --- | --- | --- | --- | --- | --- | --- | --- | --- | --- |
| > 10000 | 26 | 328 | > 0.99 | > 0.99 | 2.96 | 35 | 60.5 | – | – | – | – | – | – | – | – | – | CNC1=N[C@@H]2[C@H](F)[C@H](O)[C@@H](CF)O[C@@H]2S1 | – | – | – | half-life [1]: 1.18 h; Vd [4]: 0.85 L/kg; clearance [8]: 14.4 mL/min/kg |
| – | 6.1 | 176 | 0.87 | 0.98 | 1.77 | 20 | 102 | ≥ 18.7 | 0.047 | 37.4 | 0.228 | 1.49 | 2.39 | 3.8 | – | – | CCNC1=N[C@@H]2[C@@H](O)[C@H](O)[C@@H](CF)O[C@@H]2S1 | 1.74 | 1.84 | – | IC50 (Cytochrome P450 2D6): > 50000 nM; IC50 [12]: > 30000 nM; IC50 (Cytochrome P450 3A4): > 50000 nM; IC50 [13]: > 30000 nM; IC50 [14]: > 30000 nM; EC50 [19]: > 30000 nM; IC50 (Cytochrome P450 2C9): > 50000 nM |
| 3900 | 14 | 31.2 | > 0.99 | 0.95 | 0.43 | 2.4 | 49.7 | 3.03 | 0.049 | 70.5 | 0.147 | 1.56 | 3.81 | 10.3 | 34.18 | 4.89 | CN(C)C1=N[C@@H]2[C@@H](O)[C@H](O)[C@@H](C(F)F)O[C@@H]2S1 | 2.57 | 2.53 | 2.83 | Tmax [27]: 12 h |
| 790 | 5.3 | 34.4 | 0.96 | 0.88 | 3.36 | 0.55 | 132 | ≥ 7.9 | 0.025 | 27.8 | 0.068 | 0.6 | 1.71 | 1.79 | – | – | CNC1=N[C@@H]2[C@@H](O)[C@H](O)[C@@H](CF)O[C@@H]2S1 | 1.65 | 2.44 | – | – |
| > 10000 | 24 | – | > 0.99 | 0.88 | 1.9 | – | 74.7 | – | – | 30.4 | 0.289 | 2.22 | 1.66 | 2.23 | 19.68 | 53.87 | CNC1=N[C@@H]2C[C@H](O)[C@@H](C(F)F)O[C@@H]2S1 | – | 1.8 | 2.69 | Tmax [27]: 8 h |
| > 10000 | 20 | 58.2 | 0.97 | 0.93 | 4.27 | 23 | 90.4 | – | – | 11.4 | 0.142 | 0.189 | 4.29 | 2.96 | 11.69 | 35.91 | CNC1=N[C@@H]2[C@H](F)[C@H](O)[C@@H](C(F)F)O[C@@H]2S1 | – | 2.51 | 2.04 | Tmax [27]: 8 h |
